Experiment [1] has as its system RCH-ACV. As to the kind of experiment: Kinase inhibitor drug combination screen (MTS, Bliss-independence analysis).
Excerpt: (§1) Hits were ranked by the observed inhibition over the Bliss independence prediction.
(§2) Combinations with positive values for this Bliss difference were considered synergistic, values near zero, additive, and negative values, antagonistic.
Experiment [2] relates to KOPN8. The experiment is described as above.
Excerpt: as §1, §2
The subject of experiment [3] is MOLM14, Kasumi-1, KOPN8 and RCH-ACV leukemia cell lines. As to the kind of experiment: Kinase inhibitor drug combination screen, summary over the four leukemia cell lines. As to conditions: cell lines synergistically inhibited (>10% over Bliss) by drug 1 combined with AS and/or ART-838.
Excerpt: as §1, §2
In experiment [4] the test system is MOLM14 cells. The experiment in a line: alamarBlue cytotoxicity assay, single-drug IC50, 48 h. It counts as cell-based, human. The method, then:
Peripheral wells were filled with sterile water to minimize the effects of evaporation. […] Results were normalized to cells treated with vehicle (≦0.5% DMSO) alone. IC50s were calculated using CompuSyn software and represent the means of at least three experiments performed in triplicate.
Background: The colour change of resazurin is a common sign of viable cells or microbes.

Experiment [5] concerns MOLM14 cells. The experiment in a line: ROS - mitochondrial superoxide (MitoSOX flow cytometry). Format: cell-based, human. The settings on record: for effect on ART-838-induced superoxide generation: MOLM14, combined with ART-838, 2.25x IC50s; for effect on ART-838-induced superoxide generation / effect on AS-induced superoxide generation: 16 h; for effect on AS-induced superoxide generation: MOLM14, combined with AS, 2.25x IC50s. The procedure: FIGS. 4A-4D. […] CIs were computed as described above. CI<1 indicates synergy, CI=1, additivity, CI>1, antagonism. […] Cells were then loaded with 5 μM MitoSox for 30 min, washed, and analyzed by flow cytometry for MitoSox fluorescence (indicating mitochondrial superoxide) in the FL2 channel. […] Error bars represent the SEM of three independent experiments.
On the technique in general: Flow cytometry measures light scatter and fluorescence of single cells or particles in a stream.

Experiment [6] has as its system MOLM14. The experiment in a line: Kinase inhibitor drug combination screen (MTS, Bliss-independence analysis).
Excerpt: as §1, §2
Experiment [7] deals with MOLM14 cells. The experiment in a line: Preliminary cytotoxicity of ROS/iron inhibitors (Trypan Blue dye exclusion assays). Format: cell-based, human. The settings on record: read-out: approximate 48-hour IC50.
For experiment [8], the system named is KOPN8 cells. As to the kind of experiment: alamarBlue cytotoxicity assay, single-drug IC50, 48 h. It counts as cell-based. The settings on record: Homo sapiens, KOPN-8. The procedure: Cytotoxicity was assessed using alamarBlue assays (Life Technologies, Grand Island, N.Y.; used for IC50 determinations and all drug combinations except the drug combination screen (method described separately below)) or Trypan Blue dye exclusion (Life Technologies, Grand Island, N.Y.; used only for experiments using inhibitors that could interfere with alamarBlue assay performance (NAC, Tiron, DFO)).
Cell lines were seeded in 96-well tissue culture plates at 10^4 cells per well (myeloid leukemia lines) or 2×10^4 cells per well (lymphoid leukemia lines) in culture medium, followed by addition of drugs at the indicated concentrations. 2-4 wells per plate containing media-only were included for background subtraction. Peripheral wells were filled with sterile water to minimize the effects of evaporation.
MOLM14 cells were treated with each of these drugs, alone and in combination with ART-838 or AS at an equipotency ratio based on the IC50s for each drug (Table 1). In Table 1, KOPN8 and MOLM14 cell lines were treated with a range of concentrations of each drug for 48 h then cytotoxicity was measured via alamarBlue assay. Results were normalized to cells treated with vehicle (≦0.5% DMSO) alone. IC50s were calculated using CompuSyn software and represent the means of at least three experiments performed in triplicate. Addition of ART-838 or AS enhanced the cytotoxicity of all six tested drugs across a range of concentrations (FIG. 2). Drug interactions were typically most favorable (more additive/synergistic or less antagonistic) at higher doses.

The subject of experiment [9] is MOLM14 cells. The experiment in a line: Drug combination analysis (Chou and Talalay), simultaneous 48 h treatment, alamarBlue. It counts as cell-based, human. The settings on record: MOLM14, combined with AS, 2.25x single-drug IC50s. The procedure: FIGS. 2A-2B. ART-838 or AS enhanced the cytotoxicity of all six antileukemic drugs tested in MOLM14. […] Each experiment was performed three times in triplicate, and error bars represent the SEM. All panels have error bars but some are too small to be visible. Combination indices (CI) were computed for each drug combination using CompuSyn software, based on the Median Effect Principle and the CI theorem of Chou-Talalay, wherein CI=1 indicates additivity, CI<1 synergism, and CI>1 antagonism.
FIGS. 4A-4D. Effects of ART-838- and AS-containing drug combinations on MOLM14 growth and superoxide generation. […]. CIs were computed as described above. CI<1 indicates synergy, CI=1, additivity, CI>1, antagonism. […] Cells were then loaded with 5 μM MitoSox for 30 min, washed, and analyzed by flow cytometry for MitoSox fluorescence (indicating mitochondrial superoxide) in the FL2 channel. Mean fluorescence intensity (MFI) was normalized to that of vehicle control (0.5% DMSO) with no pretreatment (100%, lower dotted lines). Upper dotted lines show MFI of ART-838- or AS-treated cells. Error bars represent the SEM of three independent experiments.
For each two-drug pair, dose-response curves were generated for each drug individually and for the two drugs combined. […]. […]

Setting [10] is: Drug 2 = ART-838 at approximate IC50, 48 h.
Setting [11] is: KOPN8, Drug 2 = ART-838 at approximate IC50, 48 h.
Setting [12] is: Drug 2 = AS at approximate IC50, 48 h.
The mark [13] stands for this setting: MOLM14, Drug 2 = ART-838 at approximate IC50, 48 h.
Setting [14] is: Homo sapiens, MOLM-14, MOLM14, single drug, 48 h, alamarBlue.
Setting [15] is: KOPN8, Drug 2 = AS at approximate IC50, 48 h.
The mark [16] stands for this setting: MOLM14, Drug 2 = AS at approximate IC50, 48 h.

Data on 19 compounds can be found in patent US9918972B2, “Treatment of leukemia with artemisinin derivatives and combinations with other antineoplastic agents” (UNIVERSITY OF MARYLAND, BALTIMORE, priority 2014, dated 2018).

As a reminder, the IC50 is the concentration needed to halve the response being measured.

Where “and” joins values, the source holds several entries; their conditions need not be identical. Equal entries are not always repeated. Entries after “also recorded” stand apart in the source; their conditions may differ. Structures can show the parent of a compound that is named as a salt. Marks after values point to notes of the source that are not given here.

`O=C(Nc1cccc(C(F)(F)F)c1)Nc1cc(S(=O)(=O)NC2CC2)ccc1-c1ccsc1` [AGI6780]: the “fractional inhibition over Bliss prediction” value in experiment [1] (setting [10]) is listed as “RCH-ACV (0.11)”; in experiment [2] (setting [11]) it was “KOPN8 (0.17),”. The “No. Cell Lines” value in experiment [3] is reported as 2/4**.

In experiment [4] (MOLM14 (AML) cell line), `C[C@@H]1CCC2[C@@H](C)[C@@H](CC(COP(=O)(Oc3ccccc3)Oc3ccccc3)C[C@H]3O[C@@H]4O[C@@]5(C)CCC6[C@H](C)CCC([C@H]3C)[C@]64OO5)O[C@@H]3O[C@@]4(C)CCC1[C@@]23OO4` (some centres unmarked) [ART-838, artemisinin-derived trioxane diphenylphosphate dimer 838] gave an IC50 of 25 nM. Besides, the “mitochondrial superoxide (MitoSox MFI)” value in experiment [5] (MOLM14, drug alone, 2.25x IC50, 16 h) is given as “increased; also recorded: induced superoxide to greater levels than AS”.

`Cc1c[nH]c(-c2cnc(NCCNc3ccc(C#N)cn3)nc2-c2ccc(Cl)cc2Cl)n1` [CHIR-99021]: the entries for the “fractional inhibition over Bliss prediction” value in experiment [1] (setting [12]) and in experiment [6] (setting [13]) were “RCH-ACV (0.15)” and “MOLM14 (0.53)”, respectively. Also, in experiment [3], the “No. Cell Lines” value is reported as 2/4.

In the case of `C[C@@H](Oc1cc(-c2cnn(C3CCNCC3)c2)cnc1N)c1c(Cl)ccc(F)c1Cl` [Crizotinib], the “fractional inhibition over Bliss prediction” value in experiment [1] (setting [12]) is “RCH-ACV (0.13)”; in experiment [2] (setting [11]), “KOPN8 (0.12)”. The “No. Cell Lines” value in experiment [3] is 2/4**.

With `CC(=O)N(O)CCCCCNC(=O)CCC(=O)N(O)CCCCCNC(=O)CCC(=O)N(O)CCCCCN` [DFO, deferoxamine mesylate], the IC50 in [7] (Homo sapiens, MOLM-14, 48 h) is ~0.011 mM.

As to `COc1cccc2c1C(=O)c1c(O)c3c(c(O)c1C2=O)C[C@@](O)(C(=O)CO)C[C@@H]3O[C@H]1C[C@H](N)[C@H](O)[C@H](C)O1` [DOX, doxorubicin], half-maximal inhibition in experiment [4] (setting [14]) (IC50) required 79 nM. In experiment [8], the IC50 worked out at 30 nM. In [5], the “effect on ART-838-induced superoxide generation” value is “further enhanced” and the “effect on AS-induced superoxide generation” value is reported as “further enhanced”.

Consider `COc1cc([C@@H]2c3cc4c(cc3[C@@H](O[C@@H]3O[C@@H]5CO[C@@H](C)O[C@H]5[C@H](O)[C@H]3O)[C@H]3COC(=O)[C@H]23)OCO4)cc(OC)c1O` [ETO, etoposide], for which the IC50 in [8] worked out at 150 nM. In experiment [5], the “effect on ART-838-induced superoxide generation” value is “further enhanced” and the “effect on AS-induced superoxide generation” value is given as “further enhanced”.

For the compound `CCc1cc(Nc2nccc(-c3c(-c4ccc(OC)c(C(=O)Nc5c(F)cccc5F)c4)nc4ccccn34)n2)c(OC)cc1N1CCC(N2CCN(S(C)(=O)=O)CC2)CC1` [GSK-1904529A], the “fractional inhibition over Bliss prediction” value is “RCH-ACV (0.14)” in experiment [1] (setting [10]); “RCH-ACV (0.20)” in [1] (setting [12]); 0.24 and 0.16 in [2] (setting [11]); “KOPN8 (0.18),” in experiment [2] (setting [15]); 0.57 and 0.37 in experiment [6] (setting [13]); 0.30 and 0.27 in experiment [6] (setting [16]). For the same compound, in [3], the “No. Cell Lines” value was 3/4.

On to `C[C@]12O[C@H](C[C@]1(O)CO)n1c3ccccc3c3c4c(c5c6ccccc6n2c5c31)CNC4=O` [LES, lestaurtinib], for which the results for the IC50 in experiment [4] (setting [14]) and in experiment [8] were 3 nM and 45 nM, respectively. In addition, the “Combination index (CI), interaction” value in experiment [9] amounted to 1.5.

`CO[C@@H]1[C@H](N(C)C(=O)c2ccccc2)C[C@H]2O[C@]1(C)n1c3ccccc3c3c4c(c5c6ccccc6n2c5c31)C(=O)NC4` [MID, midostaurin]: in experiment [8], the IC50 came to 210 nM.

With `O=C(O)c1ccc(Nc2ncc3c(n2)-c2ccc(Cl)cc2C(c2c(F)cccc2F)=NC3)cc1` [MLN8054], the “fractional inhibition over Bliss prediction” value is “KOPN8 (0.11)” in experiment [2] (setting [11]) and “MOLM14 (0.15),” in experiment [6] (setting [13]). The “No. Cell Lines” value in experiment [3] was 2/4.

For the compound `CC(=O)N[C@@H](CS)C(=O)O` [NAC], the IC50 in [7] (MOLM14, preliminary experiments) is ~25 mM.

Turning to `Cc1ccc(S(=O)(=O)OCC(=O)Nc2ccc(C(=O)O)c(O)c2)cc1` [S31-201], the “fractional inhibition over Bliss prediction” value in experiment [2] (setting [11]) is on record as “KOPN8 (0.23)”; in experiment [2] (setting [15]), “KOPN8 (0.17)”; in [6] (setting [13]), “MOLM14 (0.18),”; in experiment [6] (setting [16]) it was “MOLM14 (0.30),”. For the same compound, in [3], the “No. Cell Lines” value was 2/4.

As to `Cc1[nH]c(/C=C2\C(=O)Nc3ccc(S(=O)(=O)N(C)c4cccc(Cl)c4)cc32)c(C)c1C(=O)N1CCN(C)CC1` [SU11274], the “fractional inhibition over Bliss prediction” value in [2] (setting [11]) is given as “KOPN8 (0.39)”; in experiment [2] (setting [15]), “KOPN8 (0.17)”; in experiment [6] (setting [13]), “MOLM14 (0.17),”; in experiment [6] (setting [16]), “MOLM14 (0.28),”. In addition, the “No. Cell Lines” value in experiment [3] is on record as 2/4.

As for `Cn1cnc2c(F)c(Nc3ccc(Br)cc3Cl)c(C(=O)NOCCO)cc21` [Selumetinib], the “fractional inhibition over Bliss prediction” value in [2] (setting [11]) is “KOPN8 (0.19)”; in [6] (setting [13]), “MOLM14 (0.15),”. The “No. Cell Lines” value in experiment [3] is reported as 2/4.

With `O=S(=O)(O)c1cc(O)c(O)c(S(=O)(=O)O)c1` [Tiron], in experiment [7] (Homo sapiens, MOLM-14, 48 h, MOLM14, preliminary experiments), the IC50 was ~1 mM.

For the compound `COc1cc2nccc(Oc3ccc(NC(=O)Nc4cc(C)on4)c(Cl)c3)c2cc1OC` [Tivozanib], the “fractional inhibition over Bliss prediction” value is recorded as “KOPN8 (0.22)” in experiment [2] (setting [11]), “KOPN8 (0.11)” in experiment [2] (setting [15]) and “MOLM14 (0.20),” in experiment [6] (setting [16]). Also, the “No. Cell Lines” value in experiment [3] is recorded as 2/4.

`O=c1ncn2nc(Sc3ccc(F)cc3F)ccc2c1-c1c(Cl)cccc1Cl` [VX-745]: the “fractional inhibition over Bliss prediction” value in experiment [2] (setting [11]) is recorded as “KOPN8 (0.14)”; in experiment [6] (setting [16]), “MOLM14 (0.11)”. In addition, the “No. Cell Lines” value in experiment [3] is 2/4.

For `Oc1nc(-c2ccc(C(F)(F)F)cc2)nc2c1CSCC2` [XAV-939], the “fractional inhibition over Bliss prediction” value in [1] (setting [12]) is reported as “RCH-ACV (0.22)”; in experiment [2] (setting [11]) it was “KOPN8 (0.18)”; in experiment [6] (setting [13]), “MOLM14 (0.17),”. In experiment [3], the “No. Cell Lines” value is 3/4.
